What was measured:
Format in all cases: in vivo
[1] = test system: barnyardgrass (Echinochloa crus-galli); assay: Test A postemergence, barnyardgrass; conditions: Postemergence, 0 to 100 scale (0 no effect, 100 complete control)
Summary of the method: (§1)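 Barnyardgrass, wheat and galium were treated postemergence at the one- to two-leaf stage (2 to 10 cm) with chemicals formulated in non-phytotoxic solvent plus surfactant, grown in loam soil–sand pots. Pigweed was sown in the same blend and given a preemergence directed soil spray.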

[2] = test system: Ryegrass, Italian (Italian ryegrass, Lolium multiflorum); assay: Test A preemergence, Ryegrass, Italian; conditions: Preemergence
Summary of the method: (§2)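 Greenhouse pot test in a loam–sand blend; compounds delivered in a non-phytotoxic solvent carrying a surfactant, applied either as a directed spray to soil at seeding or over seedlings 2 to 10 cm high with one to two leaves.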

[3] = test system: wheat (Triticum aestivum); assay: Test A postemergence, wheat; conditions: Postemergence, 0 to 100 scale (0 no effect, 100 complete control)
Summary of the method: as §1

[4] = test system: pigweed (Amaranthus retroflexus); assay: Test A postemergence, pigweed; conditions: Postemergence, 0 to 100 scale (0 no effect, 100 complete control)
Summary of the method: as §2

[5] = test system: Foxtail, Giant (giant foxtail, Setaria faberi); assay: Test A postemergence, Foxtail, Giant; conditions: Postemergence, 0 to 100 scale (0 no effect, 100 complete control)
Summary of the method: as §2

[6] = test system: pigweed (Amaranthus retroflexus); assay: Test A preemergence, pigweed
Summary of the method: as §1

kochia (Bassia scoparia) [7] = assay: Test A postemergence, kochia; conditions: Postemergence, 0 to 100 scale (0 no effect, 100 complete control)
Summary of the method: as §2

[8] = test system: blackgrass (Alopecurus myosuroides); assay: Test A postemergence, blackgrass; conditions: Postemergence, 0 to 100 scale (0 no effect, 100 complete control)
Summary of the method: as §2

kochia (Bassia scoparia) [9] = assay: Test A preemergence, kochia; conditions: Preemergence
Summary of the method: as §2

[10] = test system: Foxtail, Giant (giant foxtail, Setaria faberi); assay: Test A preemergence, Foxtail, Giant; conditions: Preemergence
Summary of the method: as §2

[11] = test system: barnyardgrass (Echinochloa crus-galli); assay: Test A preemergence, barnyardgrass; conditions: Preemergence
Summary of the method: as §2

[12] = test system: galium (catchweed bedstraw, Galium aparine); assay: Test A postemergence, galium; conditions: Postemergence, 0 to 100 scale (0 no effect, 100 complete control)
Summary of the method: as §1

[13] = test system: Ryegrass, Italian (Italian ryegrass, Lolium multiflorum); assay: Test A postemergence, Ryegrass, Italian; conditions: Postemergence, 0 to 100 scale (0 no effect, 100 complete control)
Summary of the method: as §2

corn (Zea mays) = assay: Test A postemergence, corn; conditions: Postemergence, 0 to 100 scale (0 no effect, 100 complete control)
Summary of the method: as §2

[14] = test system: ragweed (common ragweed, Ambrosia artemisiifolia); assay: Test A postemergence, ragweed; conditions: Postemergence, 0 to 100 scale (0 no effect, 100 complete control)
Summary of the method: as §2

[15] = test system: ragweed (common ragweed, Ambrosia artemisiifolia); assay: Test A preemergence, ragweed; conditions: Preemergence
Summary of the method: as §2

[16] = 500 g ai/ha, visual injury approx. 10 days
[17] = 125 g ai/ha, visual injury, 0 to 100 scale (0 no effect, 100 complete control), approx. 10 days
[18] = 500 g ai/ha, visual injury on 0 to 100 scale (0 no effect, 100 complete control), approximately 10 days

Cc1cc(C)c(N(S(=O)(=O)C(F)(F)F)S(=O)(=O)C(F)(F)F)cc1N1CCC2(CCCC2)C1=O [Compound 280]
Plant response rating, Barnyardgrass ([1]; 125 g ai/ha): 20
Plant response rating, Barnyardgrass [1, 16]: 90
Plant response rating, Ryegrass, Italian [2, 17]: 100
Ryegrass, Italian plant response rating [2, 18]: 100
Plant response rating, Wheat ([3]; 125 g ai/ha): 40
Plant response rating, Wheat [3, 16]: 60
Plant response rating, Pigweed ([4]; 125 g ai/ha): 60
Plant response rating, Pigweed [4, 16]: 90
Plant response rating, Foxtail, Giant ([5]; 125 g ai/ha): 0
Plant response rating, Foxtail, Giant [5, 16]: 20
Plant response rating, Pigweed [6, 17]: 70
Pigweed plant response rating [6, 18]: 100
Plant response rating, Kochia (kochia (Bassia scoparia) [7]; 125 g ai/ha): 20
Plant response rating, Kochia (kochia (Bassia scoparia) [7]; [16]): 50
Plant response rating, Blackgrass ([8]; 125 g ai/ha): 0
Plant response rating, Blackgrass [8, 16]: 0
Plant response rating, Kochia (kochia (Bassia scoparia) [9]; [17]): 40
Kochia plant response rating (kochia (Bassia scoparia) [9]; [18]): 70
Plant response rating, Foxtail, Giant [10, 17]: 100
Foxtail, Giant plant response rating [10, 18]: 100
Plant response rating, Barnyardgrass [11, 17]: 90
Barnyardgrass plant response rating [11, 18]: 90
Plant response rating, Galium ([12]; 125 g ai/ha): 80
Plant response rating, Galium [12, 16]: 90
Plant response rating, Ryegrass, Italian ([13]; 125 g ai/ha): 40
Plant response rating, Ryegrass, Italian [13, 16]: 70
Plant response rating, Corn (corn (Zea mays); 125 g ai/ha): 0
Plant response rating, Corn (corn (Zea mays); [16]): 10
Plant response rating, Ragweed ([14]; 125 g ai/ha): 30
Plant response rating, Ragweed [14, 16]: 50
Plant response rating, Ragweed [15, 17]: 30
Ragweed plant response rating [15, 18]: 70
